Tests used:
CDK9/CycT1 = biological target: T1, CDK9/CycT1 (Homo sapiens, UniProt P50750); assay: CDK9/CycT1 high ATP kinase assay (TR-FRET, Method 1b); assay type: biochemical; conditions: 2 mM ATP; for IC50: Method 1b; for Selectivity high ATP CDK9 over high ATP CDK2: IC50 (high ATP CDK2)/IC50 (high ATP CDK9): Methods 1b and 2b
T1 construct: Recombinant full-length His-tagged human CDK9 and CycT1; His; purchased Invitrogen PV4131; host or cells: insect cells
Procedure: 1b. CDK9/CycT1 High ATP Kinase Assay
CDK9/CycT1-inhibitory activity of compounds of the present invention at a high ATP concentration after preincubation of enzyme and test compounds was quantified employing the CDK9/CycT1 TR-FRET assay as described in the following paragraphs.
Recombinant full-length His-tagged human CDK9 and CycT1, expressed in insect cells and purified by Ni-NTA affinity chromatography, were purchase from Invitrogen (Cat. No PV4131). As substrate for the kinase reaction biotinylated peptide biotin-Ttds-YISPLKSPYKISEG (C-terminus in amid form) was used which can be purchased e.g. from the company JERINI peptide technologies (Berlin, Germany).
(§1) For the assay 50 nl of a 100 fold concentrated solution of the test compound in DMSO was pipetted into a black low volume 384 well microtiter plate (Greiner Bio-One, Frickenhausen, Germany), 2 μl of a solution of CDK9/CycT1 in aqueous assay buffer [50 mM Tris/HCl pH 8.0, 10 mM MgCl2, 1.0 mM dithiothreitol, 0.1 mM sodium ortho-vanadate, 0.01% (v/v) Nonidet-P40 (Sigma)] were added and the mixture was incubated for 15 min at 22° C. to allow pre-binding of the test compounds to the enzyme before the start of the kinase reaction. […] The concentration of CDK9/CycT1 was adjusted depending of the activity of the enzyme lot and was chosen appropriate to have the assay in the linear range, typical concentrations were in the range of 0.5 μg/mL. The reaction was stopped by the addition of 5 μl of a solution of TR-FRET detection reagents (0.2 μM streptavidine-XL665 [Cisbio Bioassays, Codolet, France] and 1 nM anti-RB(pSer807/pSer811)-antibody from BD Pharmingen [#558389] and 1.2 nM LANCE EU-W1024 labeled anti-mouse IgG antibody [Perkin-Elmer, product no. AD0077]) in an aqueous EDTA-solution (100 mM EDTA, 0.2% (w/v) bovine serum albumin in 100 mM HEPES pH 7.5).
(§2) The resulting mixture was incubated 1 h at 22° C. to allow the formation of complex between the phosphorylated biotinylated peptide and the detection reagents. Subsequently the amount of phosphorylated substrate was evaluated by measurement of the resonance energy transfer from the Eu-chelate to the streptavidine-XL. Therefore, the fluorescence emissions at 620 nm and 665 nm after excitation at 350 nm was measured in a HTRF reader, e.g. a Rubystar (BMG Labtechnologies, Offenburg, Germany) or a Viewlux (Perkin-Elmer). The ratio of the emissions at 665 nm and at […] was taken as the measure for the amount of phosphorylated substrate. The data were normalised (enzyme reaction without inhibitor=0% inhibition, all other assay components but no enzym=100% inhibition).

MOLM-13 cells = assay: Proliferation assay, Cell Titre-Glo viability (Method 3); assay type: cell-based; conditions: Homo sapiens; MOLM-13, 72-hour exposure; read-out: Inhibition of MOLM-13 cell proliferation IC50
Procedure: A2780 human ovarian carcinoma cells (ECACC #93112519) and non-adherent MOLM-13 human acute myeloid leukemia cells (DSMZ ACC 554) were seeded at a density of 3,000 cell/well (A2780) or 5,000 cells/well (MOLM-13) in a 96-well multititer plate in 150 μL of growth medium supplemented 10% fetal calf serum. After 24 hours, cell viability of one plate (zero-point plate) was determined with the Cell Titre-Glo Luminescent Cell Viability Assay (Promega), while the medium of the other plates was supplemented with the test substances in various concentrations (0 μM, as well as in the range of 0.0001-10 μM; the final concentration of the solvent dimethyl sulfoxide was adjusted to 0.1%) using a Hewlett-Packard HP D300 Digital Dispenser. Cell viability was assessed after 72-hour exposure with the Cell
Titre-Glo Luminescent Cell Viability Assay (Promega). IC50 values (inhibitory concentration at 50% of maximal effect) were determined by means of a 4 parameter fit on measurement data which were normalized to vehicle (DMSO) treated cells (=100%) and measurement readings taken immediately before compound exposure (=0%).

CDK2/CycE = biological target: T2, CDK2/CycE (Homo sapiens, UniProt P24941); assay: CDK2/CycE kinase assay (TR-FRET, Method 2a); assay type: biochemical; conditions: 10 μM ATP
T2 construct: GST; purchased ProQinase GmbH (Freiburg, Germany); host or cells: insect cells (Sf9)
Description: 2a. CDK2/CycE Kinase Assay:
CDK2/CycE-inhibitory activity of compounds of the present invention was quantified employing the CDK2/CycE TR-FRET assay as described in the following paragraphs:
Recombinant fusion proteins of GST and human CDK2 and of GST and human CycE, expressed in insect cells (Sf9) and purified by Glutathion-Sepharose affinity chromatography, were purchased from ProQinase GmbH (Freiburg, Germany). As substrate for the kinase reaction biotinylated peptide biotin-Ttds-YISPLKSPYKISEG (C-terminus in amid form) was used which can be purchased e.g. from the company JERINI Peptide Technologies (Berlin, Germany).
as §1, with “CDK2/CycE” for “CDK9/CycT1”, “130 ng/mL.” for “0.5 μg/mL.”
as §2, with “TR-FRET” for “HTRF”

T1 sequence (P50750 whole entry): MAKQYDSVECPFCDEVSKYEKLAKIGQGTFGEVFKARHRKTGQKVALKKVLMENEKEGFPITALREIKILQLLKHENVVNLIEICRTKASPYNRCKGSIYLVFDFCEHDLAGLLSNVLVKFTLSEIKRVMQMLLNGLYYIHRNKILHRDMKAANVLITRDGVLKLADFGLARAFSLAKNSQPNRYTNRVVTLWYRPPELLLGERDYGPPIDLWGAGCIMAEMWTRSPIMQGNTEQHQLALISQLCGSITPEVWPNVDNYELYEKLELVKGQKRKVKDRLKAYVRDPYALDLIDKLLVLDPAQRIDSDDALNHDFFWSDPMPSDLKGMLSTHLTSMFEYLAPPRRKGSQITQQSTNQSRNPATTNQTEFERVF
T1 sequence (O60563 whole entry partner): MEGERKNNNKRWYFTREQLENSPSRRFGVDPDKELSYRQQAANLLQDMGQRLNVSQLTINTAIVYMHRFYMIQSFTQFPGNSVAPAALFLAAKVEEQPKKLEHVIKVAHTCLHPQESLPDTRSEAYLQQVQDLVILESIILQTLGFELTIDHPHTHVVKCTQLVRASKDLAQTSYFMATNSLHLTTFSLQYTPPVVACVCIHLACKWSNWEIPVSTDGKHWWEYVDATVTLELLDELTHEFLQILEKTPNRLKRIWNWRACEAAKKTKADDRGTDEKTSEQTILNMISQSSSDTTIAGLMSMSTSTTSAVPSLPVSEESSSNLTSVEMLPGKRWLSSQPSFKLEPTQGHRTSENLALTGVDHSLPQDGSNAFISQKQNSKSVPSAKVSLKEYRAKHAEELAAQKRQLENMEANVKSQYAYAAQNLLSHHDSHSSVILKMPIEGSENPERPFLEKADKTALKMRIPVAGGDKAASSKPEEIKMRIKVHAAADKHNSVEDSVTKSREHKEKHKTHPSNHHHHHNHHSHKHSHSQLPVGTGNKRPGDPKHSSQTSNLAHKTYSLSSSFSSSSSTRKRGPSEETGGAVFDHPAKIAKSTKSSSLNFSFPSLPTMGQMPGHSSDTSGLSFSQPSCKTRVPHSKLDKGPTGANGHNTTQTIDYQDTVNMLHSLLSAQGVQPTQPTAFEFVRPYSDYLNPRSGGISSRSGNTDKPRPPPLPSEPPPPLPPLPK

CC(C)(C)OC(=O)N=S(C)(=O)Cc1cc2nc(c1)Nc1cc(c(F)cn1)-c1ccc(F)cc1OCCCCCN2 (racemic) [Example 9, (rac)-tert-butyl[{[17,21-difluoro-2,3,4,5,6,7-hexahydro-13H-12,8-(azeno)-14,18-(metheno)-1,7,13,15-benzoxatriazacycloicosin-10-yl]methyl}(methyl)oxido-λ^6-sulfanylidene]carbamate]
IC50 (CDK9/CycT1): 6.8 nM
Selectivity high ATP CDK9 over high ATP CDK2: IC50 (high ATP CDK2)/IC50 (high ATP CDK9) (CDK9/CycT1): 37.2
IC50 (MOLM-13 cells): 19 nM
IC50 (CDK2/CycE): 96 nM

CS(=N)(=O)Cc1cc2nc(c1)Nc1cc(c(F)cn1)-c1ccc(F)cc1OCCCCCN2 (racemic) [Example 10, (rac)-17,21-difluoro-10-[(S-methylsulfonimidoyl)methyl]-2,3,4,5,6,7-hexahydro-13H-12,8-(azeno)-14,18-(metheno)-1,7,13,15-benzoxatriazacycloicosine]
IC50 (CDK9/CycT1): 1 nM
Selectivity high ATP CDK9 over high ATP CDK2: IC50 (high ATP CDK2)/IC50 (high ATP CDK9) (CDK9/CycT1): 102
IC50 (MOLM-13 cells): 4.4 nM
IC50 (CDK2/CycE): 28 nM

CN1CCCCOc2cc(F)ccc2-c2cc(ncc2F)Nc2cc(CS(C)(=N)=O)cc1n2 (racemic) [Example 11, (rac)-16,20-difluoro-6-methyl-9-[(S-methylsulfonimidoyl)methyl]-3,4,5,6-tetrahydro-2H-7,11-(azeno)-17,13-(metheno)-1,6,12,14-benzoxatriazacyclononadecine]
IC50 (CDK9/CycT1): 2.6 nM
Selectivity high ATP CDK9 over high ATP CDK2: IC50 (high ATP CDK2)/IC50 (high ATP CDK9) (CDK9/CycT1): 31
IC50 (MOLM-13 cells): 8.2 nM
IC50 (CDK2/CycE): 34 nM

CC(C)(C)OC(=O)N=S(C)(=O)Cc1cc2cc(c1)OCCCCNc1cc(F)ccc1-c1nc(ncc1F)N2 (racemic) [Example 15, (rac)-tert-butyl[{[16,20-difluoro-2,3,4,5-tetrahydro-1H,12H-13,17-(azeno)-11,7-(metheno)-6,1,12,14-benzoxatriazacyclononadecin-9-yl]methyl}(methyl)oxido-λ^6-sulfanylidene]carbamate]
IC50 (CDK9/CycT1): 4.7 nM
Selectivity high ATP CDK9 over high ATP CDK2: IC50 (high ATP CDK2)/IC50 (high ATP CDK9) (CDK9/CycT1): 713
IC50 (MOLM-13 cells): 18 nM
IC50 (CDK2/CycE): 262 nM

CS(=N)(=O)Cc1cc2cc(c1)OCCCCNc1cc(F)ccc1-c1nc(ncc1F)N2 (racemic) [Example 16, (rac)-16,20-difluoro-9-[(S-methylsulfonimidoyl)methyl]-2,3,4,5-tetrahydro-1H-17,13-(azeno)-7,11-(metheno)-6,1,12,14-benzoxatriazacyclononadecine]
IC50 (CDK9/CycT1): 1.5 nM
Selectivity high ATP CDK9 over high ATP CDK2: IC50 (high ATP CDK2)/IC50 (high ATP CDK9) (CDK9/CycT1): 151
IC50 (MOLM-13 cells): 4.1 nM
IC50 (CDK2/CycE): 30 nM

CN1CCCCNc2cc(F)ccc2-c2nc(ncc2F)Nc2cc(CS(C)(=N)=O)cc1c2.O=CO (racemic) [Example 17, (rac)-16,20-difluoro-6-methyl-9-[(S-methylsulfonimidoyl)methyl]-1,2,3,4,5,6-hexahydro-12H-17,13-(azeno)-11,7-(metheno)-1,6,12,14-benzotetraazacyclononadecine; salt with formic acid]
IC50 (CDK9/CycT1): 2.2 nM
Selectivity high ATP CDK9 over high ATP CDK2: IC50 (high ATP CDK2)/IC50 (high ATP CDK9) (CDK9/CycT1): 283
IC50 (MOLM-13 cells): 13 nM
IC50 (CDK2/CycE): 74 nM

C[S+]([O-])Cc1cc2nc(c1)OCCCCCc1cc(F)ccc1-c1cc(ncc1F)N2 (racemic) [Example 19, (rac)-2,19-difluoro-9-[(methylsulfinyl)methyl]-14,15,16,17-tetrahydro-6H,13H-7,11-(azeno)-5,1-(metheno)-12,4,6-benzoxadiazacyclononadecine]
IC50 (CDK9/CycT1): 17 nM
Selectivity high ATP CDK9 over high ATP CDK2: IC50 (high ATP CDK2)/IC50 (high ATP CDK9) (CDK9/CycT1): 82.9
IC50 (MOLM-13 cells): 231 nM
IC50 (CDK2/CycE): 371 nM

CS(=N)(=O)Cc1cc2nc(c1)OCCCCCc1cc(F)ccc1-c1cc(ncc1F)N2 (racemic) [Example 20, (rac)-2,19-difluoro-9-[(S-methylsulfonimidoyl)methyl]-14,15,16,17-tetrahydro-6H,13H-7,11-(azeno)-5,1-(metheno)-12,4,6-benzoxadiazacyclononadecine]
IC50 (CDK9/CycT1): 5.2 nM
Selectivity high ATP CDK9 over high ATP CDK2: IC50 (high ATP CDK2)/IC50 (high ATP CDK9) (CDK9/CycT1): 177
IC50 (MOLM-13 cells): 79 nM
IC50 (CDK2/CycE): 162 nM

CN1CCCCOc2cc(F)ccc2-c2nc(ncc2F)Nc2cc(CS(C)(=N)=O)cc1c2 (racemic) [Example 23, (rac)-16,20-difluoro-6-methyl-9-[(S-methylsulfonimidoyl)methyl]-3,4,5,6-tetrahydro-2H,12H-13,17-(azeno)-11,7-(metheno)-1,6,12,14-benzoxatriazacyclononadecine]
IC50 (CDK9/CycT1): 2.1 nM
Selectivity high ATP CDK9 over high ATP CDK2: IC50 (high ATP CDK2)/IC50 (high ATP CDK9) (CDK9/CycT1): 629
IC50 (MOLM-13 cells): 9.8 nM
IC50 (CDK2/CycE): 104 nM

CSCc1cc2nc(c1)Nc1cc(c(F)cn1)-c1ccc(F)cc1OCCCN2 [Example 1, 15,19-Difluoro-8-[(methylsulfanyl)methyl]-2,3,4,5-tetrahydro-11H-10,6-(azeno)-12,16-(metheno)-1,5,11,13-benzoxatriazacyclooctadecine]
IC50 (CDK9/CycT1): 3.8 nM
Selectivity high ATP CDK9 over high ATP CDK2: IC50 (high ATP CDK2)/IC50 (high ATP CDK9) (CDK9/CycT1): 140
IC50 (MOLM-13 cells): 8 nM
IC50 (CDK2/CycE): 81.5 nM

CSCc1cc2nc(c1)OCCCCc1cc(F)ccc1-c1cc(ncc1F)N2 [Example 4, 2,18-Difluoro-9-[(methylsulfanyl)methyl]-13,14,15,16-tetrahydro-6H-7,11-(azeno)-5,1-(metheno)-12,4,6-benzoxadiazacyclooctadecine]
IC50 (CDK9/CycT1): 323 nM
Selectivity high ATP CDK9 over high ATP CDK2: IC50 (high ATP CDK2)/IC50 (high ATP CDK9) (CDK9/CycT1): >61.9
IC50 (MOLM-13 cells): 970 nM
IC50 (CDK2/CycE): > 20000 nM

Source: patent US10214542B2, “Modified macrocyclic compounds” (BAYER PHARMA AKTIENGESELLSCHAFT, priority 2015, dated 2019)
